Assay results: patent US7211120B2, “Method for forming a pattern of an organic semiconductor film” (Canon Kabushiki Kaisha, priority 2002, dated 2007)

Tests used:
Assay type in all cases: physicochemical
[1] = Light-fastness test of printed colour patch with xenon fade meter; settings: Reference Example printed article; 70 Kl×, 520 hours, 24° C., 60% RH
Experimental: (§1) Reddish purple color square patches of 1 cm×1 cm were printed on a recording medium (trade name: PR-101; manufactured by Canon Inc.) using the above two types of ink on an ink-jet printer, trade name: BJ-F 870; manufactured by Canon Inc. The color patches of Example 2 were heat treated at 120° C. for 1 minute for retro-Diels-Alder reaction of the compound 7 and converted into cyan color patch. The resultant color patches of Example 2 and Reference Example were tested for their light-fastness, gas-fastness, water-fastness and moisture-fastness.
Light-exposure-fastness test was conducted with a xenone fade meter in accordance with the following test conditions. This was to test fastness of an image mimicking sunlight entering through a window in a room.
• Irradiation Intensity: 70 Kl×testing duration 520 hours • Temperature/humidity conditions in a testing vessel: 24° C., 60% RH • Filter: soda lime (outer), borosilicate (inner)
The light-fastness was evaluated as follows: • A: Density remaining rate of 90% or more • B: Density remaining rate of 89 to 80% • C: Density remaining rate of 79% or less (Gas-fastness)

[2] = Gas-fastness test of printed colour patch with gas corrosion tester; settings: Reference Example printed article; mixed gas, 72 hours, 24° C., 60% RH
Experimental: as §1
Gas-exposure-fastness testing was conducted with a gas corrosion tester under the following test conditions (ANSI/ISA-S71.04-1985). This was to test fastness of an image assuming the effects of various gases in a room.
• Exposing gas composition: H2S: 50 ppb, SO2: 300 ppb, NO2: 1250 ppb, Cl2: 10 ppb, O3: 1200 ppb • Testing duration: 72 hours, Temperature/humidity conditions in a testing vessel: 24° C., 60% RH
The gas-fastness was evaluated as follows: • A: Density remaining rate of 90% or more • B: Density remaining rate of 89 to 80% • C: Density remaining rate of 79% or less (Water-fastness)

[3] = Water-fastness test, recorded article immersed in city water; settings: Reference Example printed article; city water 5 minutes
Experimental: as §1
The obtained recorded article was immersed in city water for 5 minutes, drawn up from the water and dried, and its change in density before and after the test was determined. • A: Density reduction rate of 1% or less. • B: Density reduction rate of 2 to 4% • C: Density reduction rate of 5% or more (Humidity-fastness)

[4] = Humidity-fastness test, recorded article stored in thermo-hydrostat vessel; settings: Reference Example printed article; 30° C., 80% RH, 1 week
Experimental: as §1
The obtained recorded article was stored in a thermo-hydrostat vessel at 30° C., 80% RH for 1 week, drawn from the vessel and dried, and its change in density before and after the test was determined. • A: Density reduction rate of 1% or less • B: Density reduction rate of 2 to 4% • C: Density reduction rate of 5% or more.

With C.I. Direct Blue 199 [DBL-199] the Light-fastness [1] was “A (Density remaining rate of 90% or more)”, the Gas-fastness [2] was “C (Density remaining rate of 79% or less)” and the Water-fastness [3] was “C (Density reduction rate of 5% or more)”. The Humidity-fastness [4] was “B (Density reduction rate of 2 to 4%)”.
